Measurements published in patent US20160075682A1, “INHIBITORS OF NICOTINAMIDE PHOSPHORIBOSYLTRANSFERASE, COMPOSITIONS, PRODUCTS AND USES THEREOF” (UNIVERSITÀ DEGLI STUDI DEL PIEMONTE ORIENTALE "AMEDEO …, priority 2013, published 2016).

Tests used:
[1] = system: SH-SY5Y, HeLa; experiment: MTT cell proliferation assay and trypan blue count (cell viability); type: cell-based; details: cells treated for 48 and 72 hours; read-out: IC50 values (inhibition of cellular proliferation, MTT assay and trypan blue assay)
In short: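 SH-SY5Y and HeLa cells, 8×10^5 per well, exposed 48 and 72 h with final DMSO ≤0.5%. Viability by MTT (250 μg/ml, 1 h, A570 after isopropanol/HCl) and by trypan blue count. IC50 from dose-response curves for some compounds.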

[2] = system: Dextran-induced colitis in C57/BJ6 mice; experiment: Experimental colitis induced by dextran sulfate sodium (DSS); type: in vivo; details: i.p., doses of between 20 mg/Kg and 500 mg/Kg
Description: Animal work was authorized by the local ethical committee for animal studies (Università del Piemonte Orientale). Colitis was induced in C57/BJ6 mice (Harlan Nossan, Milan, Italy) by addition of DSS (2%) to their daily drinking water for 7 days followed by a 3-day recovery period without DSS. The severity of colitis was assessed using these set of criteria: (1) clinical index (daily changes in body weight; diarrhea and rectal bleeding); (2) macroscopic evidence of colitis (shortening of colon length). On day 10 of the experiment, animals were sacrificed. Treatments were performed with either solvent alone or drugs once a day for the entire duration of the experiments from day 1 to day 7. The colon lengths were measured and colon tissues were harvested for biochemical measurements, histopathological assessment and scoring. (Tang Y, Preuss F, Turek F W, Jakate S, Keshavarzian A. Sleep deprivation worsens inflammation and delays recovery in a mouse model of colitis. Sleep Med. 2009 June; 10(6):597-603).
As previously described, the colon of DNBS- or dextran treated animals was removed after the induction of colitis. Compounds of formula (I) were administered intraperitoneally (i.p.).

[3] = Metabolites generated from hydrolyses in RLM or HLM incubations (LC-ESI-MS); type: in vitro ADME, rat, human; details: RLM or HLM incubation, 60 minutes at 37° C.
Description: (§1) Male Wistar rat liver microsomes (RLM), (protein concentration: 25 mg/ml determined using the Omura and Sato method, total P450: 0.64 nmol/mg protein) were used throughout this study and prepared using an internal protocol. The cryopreserved pooled human liver microsomes (HLM), (pooled mixed sex, ten individual donors, protein concentration: 20 mg/ml, total P450: 0.36 nmol/mg) were purchased from BD Gentest™ (Woburn, Mass.) and used throughout this study.
(§2) The standard incubation mixture (1 ml final volume), was carried out in a 50 mM TRIS (Tris[hydroxymethyl]aminomethane) buffer (pH 7.4) containing 10 μl of acetonitrile (1% of total volume), and 50 μM substrate compounds. After pre-equilibration of the mixture, an appropriate volume of RLM or HLM suspension was added to give a final protein concentration of 1.0 mg/mL. The mixture was shaken for 60 minutes at 37° C. Control incubations were carried out without microsomes. Each incubation was stopped by addition of 1 ml ice-cold acetonitrile, vortexed and centrifuged at 11,000 r.p.m. for 5 min. The supernatants were analysed by LC-DAD-UV and LC-ESI-MS systems to determine the metabolic stability (% substrate residue) and the structure of metabolites respectively (Table 1).
(§3) A Shimadzu HPLC system (Shimadzu, Kyoto, Japan), consisting of two LC-10AD Vp module pumps, an SLC-10A Vp system controller, an SIL-10AD Vp autosampler, and a DGU-14-A on-line degasser were used for the analysis. Chromatographic separation was performed on a Phenomenex Luna C18(2) 150×4.6 mm (5 μm) (Phenomenex srl, Castel Bolognese, Italy) as a stationary phase protected by a C18 SecurityGuard (Phenomenex srl, Castel Bolognese, Italy). The SPD-M10Avp photodiode array detector was used to detect the analytes. LC-Solution 1.24 software was used to process the chromatograms. Aliquots (20 μL) of supernatants obtained from incubations were injected onto the HPLC system and eluted with a mobile phase (flow rate 1.0 mL/min) consisting of a A: 0.5% formic acid solution, B: acetonitrile/methanol 8:2. A Thermo Finningan LCQ Deca XP plus system equipped with a quaternary pump, a Surveyor AS autosampler, a Surveyor photodiode array detector and a vacuum degasser was used for LC/MS analyses (Thermo Electron Corporation, Waltham, Mass.). All the chromatographic separations were performed on a Phenomenex Luna C18(2)150×2 mm (4 μm) (kept at a 35° C.) as a stationary phase protected by a C18 SecurityGuard (Phenomenex srl, Castel Bolognese, Italy). Aliquots (2.0 μl) of supernatants obtained from incubations were injected onto the system and eluted with a mobile phase (flow rate 0.2 ml/min) consisting of a A: 0.2% formic acid solution, B: acetonitrile/methanol 8:2. The eluate was injected into the electrospray ion source (ESI) and MS and MS^n spectra were acquired and processed using Xcalibur® software. The operating conditions on the ion trap mass spectrometer were as follows: Positive mode, spray voltage, 5.30 kV; source current, 80 μA; capillary temperature, 350° C.; capillary voltage, 21.00 V; tube lens offset, 15.00 V; multipole 1 offset, −5.75 V; multipole 2 offset, −9.00 V; sheath gas flow (N2), 55 Auxiliary Units.

[4] = Microsomal stability with rat liver microsomes; type: in vitro ADME, Male Wistar rat; details: 50 μM substrate, 1.0 mg/mL protein, 60 minutes at 37° C., pH 7.4
Description: as §1, §2, §3

[5] = molecular target: T1, NAMPT (Homo sapiens, UniProt P43490); experiment: Direct inhibition of NAMPT enzymatic activity (Cyclex NAMPT colorimetric Assay Kit); type: biochemical; details: as assessed with a cycling assay
T1 construct: endogenous in cells; host or cells: SH-SY5Y and HeLa
Description: Determination of the direct activity of compounds on NAMPT was performed using a commercial kit, Cyclex NAMPT colorimetric Assay Kit.

T1 sequence (P43490 whole entry): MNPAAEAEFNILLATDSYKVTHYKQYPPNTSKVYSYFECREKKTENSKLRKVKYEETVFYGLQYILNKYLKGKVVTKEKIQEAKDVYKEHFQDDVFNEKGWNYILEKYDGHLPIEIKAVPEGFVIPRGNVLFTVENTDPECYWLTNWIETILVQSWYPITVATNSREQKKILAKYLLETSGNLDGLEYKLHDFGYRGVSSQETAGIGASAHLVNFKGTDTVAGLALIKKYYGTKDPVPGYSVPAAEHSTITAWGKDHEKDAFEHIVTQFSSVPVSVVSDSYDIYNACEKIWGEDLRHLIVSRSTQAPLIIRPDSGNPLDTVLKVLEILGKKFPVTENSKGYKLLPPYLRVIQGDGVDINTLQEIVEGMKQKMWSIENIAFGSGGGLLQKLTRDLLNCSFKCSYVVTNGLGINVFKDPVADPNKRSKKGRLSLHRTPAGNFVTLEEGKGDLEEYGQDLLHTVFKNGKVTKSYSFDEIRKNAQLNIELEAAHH

SMILES	IC50 [1] [µM]	protection from Dextran-induced colitis as assessed by the macroscopic damage score [2]	Metabolites generated from hydrolyses [3]	RLM stability % substrate residue (area peak) [4] [%]	inhibition of the enzymatic activity of NAMPT [5]
c1ccc(-c2ccccc2OCCCCCCn2cc(-c3cccnc3)nn2)cc1 [3-(1-(6-([1,1′-biphenyl]-2-yloxy)hexyl)-1H-1,2,3-triazol-4-yl)pyridine]	< 0.3	able to protect	no	>98	able to inhibit
O=C(NCCCCCCCn1cc(-c2cccnc2)nn1)c1ccccc1-c1ccccc1 [N-(7-(4-(pyridin-3-yl)-1H-1,2,3-triazol-1-yl)heptyl)-[1,1′-biphenyl]-2-carboxamide]	< 0.3	able to protect	no	>99	able to inhibit
